Source: US11135234B2, “Effective aminoglycoside antibiotic for multidrug-resistant bacteria” (MICROBIAL CHEMISTRY RESEARCH FOUNDATION, priority 2015, dated 2021)
In brackets after ≈: the same amount, converted by molar mass.

Assays:
S. marcescens GN6944 = assay: MIC, agar plate dilution method, S. marcescens GN6944; format: cell-based, Serratia marcescens; settings: S. marcescens GN6944, GM-resistant; for MIC: Serratia marcescens, read-out: minimal inhibitory concentration (MIC)
In short: (§1)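 MIC values, expressed in μg/mL, come from an agar plate dilution assay run as the Japan Society of Chemotherapy describes.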

E. faecium ATCC19434 = assay: MIC, agar plate dilution method, E. faecium ATCC19434; format: cell-based, Enterococcus faecium; settings: for MIC: Enterococcus faecium, ATCC19434, E. faecium ATCC19434, read-out: minimal inhibitory concentration (MIC)
In short: as §1

[1] = system: K. pneumoniae ATCC BAA-1705; assay: MIC, agar plate dilution method, K. pneumoniae ATCC BAA-1705; format: cell-based, Klebsiella pneumoniae; settings: for minimal inhibitory concentration (MIC): K. pneumoniae ATCC BAA-1705, KPC-producing strain; for MIC: Klebsiella pneumoniae, ATCCBAA1705, K. pneumoniae ATCC BAA-1705, KPC-producing strain, read-out: minimal inhibitory concentration (MIC)
In short: as §1

[2] = system: K. pneumoniae ATCC BAA-2146; assay: MIC, agar plate dilution method, K. pneumoniae ATCC BAA-2146; format: cell-based, Klebsiella pneumoniae; settings: for MIC: Klebsiella pneumoniae, ATCCBAA2146, K. pneumoniae ATCC BAA-2146, NDM-producing strain, read-out: minimal inhibitory concentration (MIC)
In short: as §1

S. aureus RN4220/pMS520 = assay: MIC, agar plate dilution method, S. aureus RN4220/pMS520; format: cell-based, Staphylococcus aureus; settings: for MIC: Staphylococcus aureus, MRSA, read-out: minimal inhibitory concentration (MIC), S. aureus RN4220/pMS520, MRSA
In short: as §1

P. aeruginosa PAO1/GN315 = assay: MIC, agar plate dilution method, P. aeruginosa PAO1/GN315; format: cell-based, Pseudomonas aeruginosa; settings: for MIC: Pseudomonas aeruginosa, read-out: minimal inhibitory concentration (MIC), P. aeruginosa PAO1/GN315, AMK-resistant
In short: as §1

P. aeruginosa PAO1 = assay: MIC, agar plate dilution method, P. aeruginosa PAO1; format: cell-based, Pseudomonas aeruginosa; settings: for minimal inhibitory concentration (MIC): P. aeruginosa PAO1, Sensitive bacterium; for MIC: Pseudomonas aeruginosa, PAO1, P. aeruginosa PAO1, Sensitive bacterium, read-out: minimal inhibitory concentration (MIC)
In short: as §1

S. aureus MF490 = assay: MIC, agar plate dilution method, S. aureus MF490; format: cell-based, Staphylococcus aureus; settings: for MIC: Staphylococcus aureus, MRSA, read-out: minimal inhibitory concentration (MIC)
In short: as §1

S. aureus RN4220 = assay: MIC, agar plate dilution method, S. aureus RN4220; format: cell-based, Staphylococcus aureus; settings: for MIC: Staphylococcus aureus, RN4220, S. aureus RN4220, Sensitive bacterium, read-out: minimal inhibitory concentration (MIC)
In short: as §1

E. coli JM109/pMW218 = assay: MIC, agar plate dilution method, E. coli JM109/pMW218; format: cell-based, Escherichia coli; settings: for MIC: Escherichia coli, JM109/PMW218, E. coli JM109/pMW218, Sensitive bacterium, read-out: minimal inhibitory concentration (MIC)
In short: as §1

P. aeruginosa MSC17707 = assay: MIC, agar plate dilution method, P. aeruginosa MSC17707; format: cell-based, Pseudomonas aeruginosa; settings: for MIC: Pseudomonas aeruginosa, MSC17707, P. aeruginosa MSC17707, AMK-resistant, read-out: minimal inhibitory concentration (MIC)
In short: as §1

P. aeruginosa MSC01035 = assay: MIC, agar plate dilution method, P. aeruginosa MSC01035; format: cell-based, Pseudomonas aeruginosa; settings: P. aeruginosa MSC01035, ABK-resistant; for MIC: Pseudomonas aeruginosa, read-out: minimal inhibitory concentration (MIC)
In short: as §1

[3] = system: A. baumannii ATCC BAA-1710; assay: MIC, agar plate dilution method, A. baumannii ATCC BAA-1710; format: cell-based, Acinetobacter baumannii; settings: for MIC: Acinetobacter baumannii, ATCCBAA1710, A. baumannii ATCC BAA-1710, MDRA, read-out: minimal inhibitory concentration (MIC)
In short: as §1

S. marcescens TH-0447 = assay: MIC, agar plate dilution method, S. marcescens TH-0447; format: cell-based, Serratia marcescens; settings: for MIC: Serratia marcescens, TH0447, S. marcescens TH-0447, AMK-resistant, read-out: minimal inhibitory concentration (MIC)
In short: as §1

Compound	MIC (S. marcescens GN6944) [µg/mL]	MIC (E. faecium ATCC19434) [µg/mL]	minimal inhibitory concentration (MIC) [1] [µg/mL]	MIC [2] [µg/mL]	MIC (S. aureus RN4220/pMS520) [µg/mL]	MIC (P. aeruginosa PAO1/GN315) [µg/mL]	minimal inhibitory concentration (MIC) (P. aeruginosa PAO1) [µg/mL]	MIC (S. aureus MF490) [µg/mL]	MIC (S. aureus RN4220) [µg/mL]	MIC (E. coli JM109/pMW218) [µg/mL]	MIC (P. aeruginosa MSC17707) [µg/mL]	MIC (P. aeruginosa MSC01035) [µg/mL]	MIC [3] [µg/mL]	MIC (S. marcescens TH-0447) [µg/mL]	MIC [1] [µg/mL]	MIC (P. aeruginosa PAO1) [µg/mL]	also measured
CNC1C(O[C@H]2OC(CO)[C@@H](NC(=O)[C@H](C)N)[C@H](O)C2O)O[C@H]2CC(N)[C@@H](O[C@@H]3C(N)C[C@@H](N)C(O)[C@H]3O)OC2C1O (stereo partly drawn) [Compound V1-k, 4″-N-(L-alanyl)-5-epiapramycin]	8 (≈ 13.1 µM)	16 (≈ 26.2 µM)	1 (≈ 1.64 µM)	1 (≈ 1.64 µM)	4 (≈ 6.55 µM)	4 (≈ 6.55 µM)	4 (≈ 6.55 µM)	8 (≈ 13.1 µM)	4 (≈ 6.55 µM)	1 (≈ 1.64 µM)	4 (≈ 6.55 µM)	8 (≈ 13.1 µM)	8 (≈ 13.1 µM)	16 (≈ 26.2 µM)			
CNC1C(OC2OC(CO)C(NC(=O)C(N)CO)C(O)C2O)OC2CC(N)C(OC3C(N)CC(N)C(O)C3O)OC2C1O [Compound V1-l, 5-epi-4″-N-(L-seryl)apramycin]			1 (≈ 1.6 µM)				4 (≈ 6.38 µM)										minimal inhibitory concentration (MIC) (S. marcescens GN6944): 8 µg/mL (≈ 12.8 µM); minimal inhibitory concentration (MIC) (E. faecium ATCC19434; E. faecium ATCC19434): 32 µg/mL (≈ 51.1 µM); minimal inhibitory concentration (MIC) ([2]; K. pneumoniae ATCC BAA-2146, NDM-producing strain): 1 µg/mL (≈ 1.6 µM); minimal inhibitory concentration (MIC) (S. aureus RN4220/pMS520; S. aureus RN4220/pMS520, MRSA): 4 µg/mL (≈ 6.38 µM); minimal inhibitory concentration (MIC) (P. aeruginosa PAO1/GN315; P. aeruginosa PAO1/GN315, AMK-resistant): 4 µg/mL (≈ 6.38 µM); minimal inhibitory concentration (MIC) (S. aureus MF490; S. aureus MF490, MRSA): 8 µg/mL (≈ 12.8 µM); minimal inhibitory concentration (MIC) (S. aureus RN4220; S. aureus RN4220, Sensitive bacterium): 4 µg/mL (≈ 6.38 µM); minimal inhibitory concentration (MIC) (E. coli JM109/pMW218; E. coli JM109/pMW218, Sensitive bacterium): 1 µg/mL (≈ 1.6 µM); minimal inhibitory concentration (MIC) (P. aeruginosa MSC17707; P. aeruginosa MSC17707, AMK-resistant): 4 µg/mL (≈ 6.38 µM); minimal inhibitory concentration (MIC) (P. aeruginosa MSC01035): 8 µg/mL (≈ 12.8 µM); minimal inhibitory concentration (MIC) ([3]; A. baumannii ATCC BAA-1710, MDRA): 8 µg/mL (≈ 12.8 µM); minimal inhibitory concentration (MIC) (S. marcescens TH-0447; S. marcescens TH-0447, AMK-resistant): 8 µg/mL (≈ 12.8 µM)
CNC1C(O[C@H]2OC(CO)[C@@H](NC(=O)CCN)[C@H](O)C2O)O[C@H]2C[C@H](N)[C@@H](O[C@@H]3C(N)C[C@@H](N)C(O)[C@H]3O)OC2C1O (stereo partly drawn) [Compound V1-m, 4″-N-(β-alanyl)-5-epiapramycin]	8 (≈ 13.1 µM)	16 (≈ 26.2 µM)		1 (≈ 1.64 µM)	2 (≈ 3.28 µM)	4 (≈ 6.55 µM)		8 (≈ 13.1 µM)	2 (≈ 3.28 µM)	1 (≈ 1.64 µM)	2 (≈ 3.28 µM)	4 (≈ 6.55 µM)	8 (≈ 13.1 µM)	8 (≈ 13.1 µM)	1 (≈ 1.64 µM)	2 (≈ 3.28 µM)	
CNC1C(O[C@H]2OC(CO)[C@@H](NC(=O)[C@@H](O)CN)[C@H](O)C2O)O[C@H]2C[C@H](N)[C@@H](O[C@@H]3C(N)C[C@@H](N)C(O)[C@H]3O)OC2C1O (stereo partly drawn) [Compound V1-n, 5-epi-4″-N-(L-isoseryl)apramycin]	8 (≈ 12.8 µM)	16 (≈ 25.5 µM)		1 (≈ 1.6 µM)	2 (≈ 3.19 µM)	4 (≈ 6.38 µM)		8 (≈ 12.8 µM)	2 (≈ 3.19 µM)	0.5 (≈ 0.798 µM)	2 (≈ 3.19 µM)	4 (≈ 6.38 µM)	8 (≈ 12.8 µM)	8 (≈ 12.8 µM)	1 (≈ 1.6 µM)	2 (≈ 3.19 µM)	
CNC1C(O[C@H]2OC(CO)[C@@H](NC(=O)CN)[C@H](O)C2O)O[C@H]2C[C@H](N)[C@@H](O[C@@H]3C(N)C[C@@H](N)C[C@H]3O)OC2C1O (stereo partly drawn) [Compound V1-o, 6-deoxy-5-epi-4″-N-glycylapramycin]	4 (≈ 6.89 µM)	8 (≈ 13.8 µM)		1 (≈ 1.72 µM)	1 (≈ 1.72 µM)	2 (≈ 3.44 µM)		4 (≈ 6.89 µM)	1 (≈ 1.72 µM)	0.5 (≈ 0.861 µM)	2 (≈ 3.44 µM)	4 (≈ 6.89 µM)	4 (≈ 6.89 µM)	8 (≈ 13.8 µM)	1 (≈ 1.72 µM)	2 (≈ 3.44 µM)	
